Measured values reported in the METLIN SMRT retention time set (Domingo-Almenara et al. 2019).

Assay: gradient 5% acetonitrile 3 min, to 50% in 2 min, to 85% in 15 min, held 3 min, 100 µL/min
Conditions: column: Zorbax Extend-C18 2.1 x 50 mm; eluents: water / acetonitrile, 0.1% formic acid
Procedure, shortened: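 The mobile phases were water and acetonitrile, each with 0.1% formic acid, pumped at 100 μL/min through a Zorbax Extend-C18 column (2.1 × 50 mm, 1.8 μm). Pure standards were injected as mixtures of ~100 molecules and detected by a quadrupole time-of-flight mass spectrometer in positive and negative ionization mode. Retention time came from computationally picked adduct peaks, each inspected by hand.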

Compound	RP-LC retention time
COc1ccc(N2C(=O)CCC(C(=O)NC3CCCCCC3)C2c2ccc(F)cc2)cc1 (stereo unspecified)	839 s
Cc1ccc(CNC(=O)N2CCN(Cc3c(C)noc3C)CC2)cc1	611 s
CCCc1ccc(S(=O)(=O)N2CCC3(CC2)NCCN=C3NCc2ccccc2OC)cc1	836 s
Cc1ccccc1Nc1c(-c2cc(Br)ccc2F)nc2ccc(Cl)cn12	1100 s
CC(C)(C)C(=O)Nc1nc(CC(=O)NCCC2=CCCCC2)cs1	814 s
CC(C)NCc1ccc(-c2ccc(Cl)cc2)o1	669 s
Cc1ccc(NS(=O)(=O)c2ccc(-c3c(C)noc3C)cc2)c(C)c1	985 s
COc1ccc(-c2nc(C3CC(=O)N(c4ccc(C)cc4)C3)no2)cn1 (stereo unspecified)	946 s
CCNC(=O)c1nc(C(=O)NC(C)c2ccc(C)cc2)cs1 (stereo unspecified)	843 s
CC(C)NC(=O)N1CCC(c2nc(C(C)C)cs2)CC1	766 s
CCOc1ccc(-n2ccn3c(CCCC(=O)NCCc4c[nH]c5ccccc45)nnc3c2=O)cc1	761 s
COc1cccc(C2Cn3nnc(-c4nc(-c5ccccc5Br)no4)c3CO2)c1 (stereo unspecified)	1170 s
CC(C)=CCN1CCC2(CCc3ccccc32)CC1	775 s
O=C(c1nc(-c2ccnc(N3CCCCC3)c2)no1)N1CCC2(CC1)OCCO2	673 s
COc1ccc(-c2nc(-c3ccc4c(c3)nc(C)c(=O)n4C(C)C)no2)cc1	1160 s
C[C@H](Cc1ccccc1)Nc1ncnc2c1ncn2[C@@H]1O[C@H](CO)[C@H](O)C1O (stereo partly specified)	696 s
COc1cccc(Nc2c(-c3ccc(Cl)cc3)nc3cnccn23)c1	961 s
Cc1ccc(CNC(=O)Cc2nnc(-c3ccc4ncccc4c3)o2)cc1	832 s
O=C(Nc1cccc(F)c1)C1CCCN(S(=O)(=O)c2cc(-c3noc(C4CCC4)n3)cs2)C1 (stereo unspecified)	1190 s
CCc1cc(=O)n(CC(=O)Nc2ccc(C)cc2)c(N2CCOCC2)n1	612 s
Cc1ccc(Cl)cc1NC(=O)Cn1nc2c3cc(Cl)ccc3ncn2c1=O	770 s
Cc1ccc(OCC(=O)NC[C@@]23CCC[C@H]2N(C)C(=O)CC3)cc1	674 s
CCOc1ccc(OCC)c(NC(=O)C2=C(C)C(=O)OC23CCCCCC3)c1	1250 s
O=C(CN1C(=O)C2CCCCN2c2ccc(C(=O)N3CCCC3)cc21)NCC1CCCO1 (stereo unspecified)	672 s
Cc1cc2c(N3CCCC(C(=O)N4CCN(c5ccccc5F)CC4)C3)nccc2s1 (stereo unspecified)	755 s
Cn1cc(C2=CCN(S(=O)(=O)c3cccc4cccnc34)CC2)c2cccnc21	889 s
CC1CC(=O)N(CC(=O)Nc2cccc(C(F)(F)F)c2)c2ccccc2S1(=O)=O (stereo unspecified)	875 s
CCn1c(CC2C(=O)Nc3ccccc32)nc2ccccc2c1=O (stereo unspecified)	730 s

Results, then the compound that gave them:

RP-LC retention time	Compound
1100 s	O=C(Nc1ccccc1C(F)(F)F)N(CCc1cccs1)C1CC1
927 s	Cc1ccc(-c2cn3ccn(-c4ccc(F)c(Cl)c4)c(=O)c3n2)cc1
580 s	Cc1cncn(CC(=O)NCc2cccs2)c1=O
679 s	CCCNC(=O)C1CCCN(c2nc3ncn(CC(=O)Nc4ccccc4F)c(=O)c3s2)C1 (stereo unspecified)
616 s	Cn1cc(CCN2CCN(S(=O)(=O)c3ccc(C#N)cc3)CC2)c2cccnc21
982 s	COc1cc2c(cc1CNC(=O)COc1ccc(Cl)cc1)OCCCO2
728 s	CCn1c(=O)c(C(=O)NCCCOC(C)C)nc2cccnc21
894 s	CCOc1ccccc1-c1nc(Cc2noc(-c3cccnc3)n2)c(C)o1
712 s	CNC(=O)c1noc([C@@H]2CC(F)(F)CN2C(=O)c2cccn2C)n1
746 s	O=c1cc(-c2ccc(O)cc2)oc2cc(O[C@@H]3O[C@H](CO)[C@H](O)[C@H](O)[C@H]3O)cc(O)c12
1000 s	Cc1ccccc1-c1noc(CCn2nc(-c3ccccc3)ccc2=O)n1
1200 s	CCOC(=O)c1cc(C2CC2)nc2c1c(=O)n(Cc1cccc(Cl)c1)c(=O)n2C
564 s	Cc1ccc(C(=O)N2CCc3[nH]cnc3C23CCCC3)c(C)c1
766 s	O=C(Cc1ccsc1)NCCC1CCN(C(=O)Nc2ccc(F)cc2F)CC1
1110 s	CC(C)(C)c1ccc(C(=O)N(Cc2ccc(Br)o2)C2CCS(=O)(=O)C2)cc1 (stereo unspecified)
964 s	CC(NC(=O)c1ccccc1)c1nc(-c2ccc3c(c2)nnn3C2CCCC2)no1 (stereo unspecified)
929 s	Cc1cccc(N2CCN(C(=O)C3CCN(S(=O)(=O)c4cn(C(C)C)cn4)CC3)CC2)c1C
642 s	Cc1cccn2c(Nc3ccc4c(c3)OCCO4)c(-c3ccc(O)cc3)nc12
899 s	Cc1nnc2ccc(S(=O)(=O)N(Cc3ccccc3)c3cc(F)cc(F)c3)cn12

RP-LC retention time	Compound
657 s	CCOc1ccccc1NC(=O)c1cn2c(n1)CCCC2
887 s	CCNc1nc(-c2ccc(Br)cc2)cs1
687 s	Cc1cccc(NC(=O)Cn2cnc(-c3nc(C)cs3)c2)c1
799 s	Cc1ccc(N2C(=O)CCS2(=O)=O)cc1S(=O)(=O)NCCc1c[nH]c2ccccc12
856 s	O=C(CN1C(=O)c2ccccc2C1=O)Nc1nnc(-c2ccc3c(c2)CCCC3)o1
650 s	CC1CCc2onc(C(=O)N3CCN(c4ccccn4)CC3)c2C1 (stereo unspecified)
845 s	O=C(NCCCN1CCOCC1)c1c(O)c2cccc3c2n(c1=O)CC3
689 s	O=C(C1CCCN(c2ncc(-c3cccc(F)c3)cn2)C1)N1CCC(N2CCCCC2)CC1 (stereo unspecified)
610 s	O=C(NCC1CCN(C(=O)Oc2ccccc2)CC1)C(=O)Nc1cccnc1
640 s	Cc1nn(CC(=O)N2CCN(c3ccccn3)CC2)c(=O)c2c1sc1ccccc12
1130 s	Cc1ccc(-c2cn3c(CC(=O)N4CCN(c5cc(Cl)ccc5C)CC4)csc3n2)cc1C
924 s	CCCN1C(=O)C2(c3cc(Br)ccc31)c1[nH]c3ccccc3c1CCN2C(C)=O (stereo unspecified)
1010 s	CCn1c(C(=O)NCc2ccc(F)cc2)cc2sccc21
675 s	Cc1csc(-c2cc(S(=O)(=O)NCCCN3CCC(C)CC3)c(C)s2)n1
1080 s	CCOC(=O)c1sc(NC(=O)C(CC)Sc2nc(C)cc(C)n2)nc1C (stereo unspecified)
936 s	C=CCN(CC=C)S(=O)(=O)c1ccc2nc(NC(=O)Cc3cccs3)sc2c1
602 s	O=c1ccc(S(=O)(=O)N2CCCC2)cn1Cc1ccccc1
638 s	CSc1ccc(CNC(=O)CN2CCc3[nH]c4c(C)cc(F)cc4c(=O)c3C2)cc1
669 s	O=C(Nc1ccc(N2CCOCC2)cc1)C1CCc2sc(C(=O)N3CCCC3)cc2C1 (stereo unspecified)
